These results are taken from publication PMC5660723, “Histone Deacetylase Inhibitors Are Protective in Acute but Not in Chronic Models of Ototoxicity” (Frontiers in Cellular Neuroscience, 2017).

Data set [1] has as its system outer hair cells (OHCs) of p3 murine organ of Corti explants. Briefly: Toxicity of HDAC inhibitors in murine cochlear explants (OHC loss by hair cell counts). Format: cell-based, CBA/J mice. An excerpt:
(§1) The culture procedures have been described in detail (Chen et al., [2009]). In brief, postnatal day 3 (p3) CBA/J pups were euthanized after antisepsis using 70% ethanol. Inner ears were extracted from surrounding tissue and immersed in cold Hank’s balanced salt solution. The lateral wall tissues (stria vascularis and spiral ligament) and the auditory nerve bundle were micro-dissected from the organ of Corti. The explants were placed onto a prepared culture dish containing a 15-μL polymerized drop of rat tail collagen in 1 mL of culture medium consisting of Basal Medium Eagle, 1% serum-free supplement (Invitrogen, Carlsbad, CA, USA), 1% bovine serum albumin, 5 mg/mL glucose, and 10 U/mL penicillin G. After 4 h of incubation (37°C, 5% CO2), an additional 1 mL of medium was added to submerge the explants.
(§2) The medium was then exchanged for new medium containing a final concentration of 4.5 μM GM with or without various concentrations of the HDAC inhibitors and incubated for 72 h. The stock solutions with 95 mM of SAHA/vorinostat (Cayman Chemical, Ann Arbor, MI, USA), 100 mM of belinostat (Selleckchem, Houson, TX, USA), and 100 mM of panobinostat (Cayman Chemical), were dissolved in 100% dimethyl sulfoxide (DMSO) and stored at −20°C. GM solution was made fresh from powder in culture medium at 0.2 mM and then diluted to the final concentration for each experiment.
(§3) Explants were fixed with 4% paraformaldehyde overnight at 4°C and permeabilized for 30 min with 3% Triton X-100 in phosphate-buffered saline (PBS) at room temperature (22–24°C). The specimens were then washed three times with PBS and incubated with rhodamine-phalloidin (Invitrogen) at a 1:100 dilution for 60 min at room temperature (22–24°C). After rinsing in PBS, the specimens were mounted on a slide with Gel-Mount™ (BioMeda Corp., Foster City, CA, USA). The phalloidin-stained stereociliary bundles and circumferential F-actin rings on the cuticular plate of OHCs allowed the determination of cells that were present or missing. A clear “V” shape of stereocilia indicates the presence of OHCs. If the “V” shape is not visualized, we accept this as a damaged hair cells. Cell populations were assessed on a Leitz Orthoplan upright microscope equipped for epifluorescence, using a 50× oil-immersion objective. […] Each successive 0.19-mm field was evaluated for the absence of OHCs beginning from the apex and moving down the organ of Corti to the base. The percentage of OHC loss was calculated.
In order to evaluate the protective potential of the three HDAC inhibitors on aminoglycoside-induced ototoxicity, we first determined their safety on auditory sensory hair cells using p3 murine organ of Corti explants. Explants were incubated for 2 days for recovery from the stress of dissection, followed by 72 h of incubation with or without inhibitors. Toxic effects were assessed by OHC loss. […] OHCs in the basal turn show changes in the orientation of the stereociliary bundles beginning with concentrations of 4 μM for SAHA, 3 μM for belinostat, and 20 nM for panobinostat.

For a further data set, the system named is pigmented guinea pigs. Briefly: Gentamicin-induced ototoxicity in guinea pigs in vivo (ABR threshold shifts, OHC counts), chronic model. To be noted: for effect on GM-induced auditory threshold shifts: SAHA IP LD 2–5 mg/kg or HD 15–25 mg/kg with GM 120 mg base/kg daily for 2 weeks.
Data set [2] deals with outer hair cells (OHCs) of p3 murine organ of Corti explants. The data set is described as follows: Protection against gentamicin-induced OHC loss in murine organ of Corti explants. The data set is classed as cell-based, CBA/J mice. To be noted: 4.5 μM GM.
Source text: as §1, §2, §3
After having established the safe concentration range for the HDAC inhibitors, we explored their efficacy as protective agents against GM-induced OHC loss. […] From the assessment of safe doses and the median effective (protective) doses (ED50) of the three HDAC inhibitors, we calculated the therapeutic index (TI = TD50/ED50) to be highest (safest) for belinostat and lowest for panobinostat (for detailed values see Table 2).

Method for pigmented guinea pigs: Pigmented male guinea pigs initially weighing 200–250 g from Charles River were used in the in-vivo study. Experiments were begun 1 week after the guinea pigs arrived. To select safe doses of SAHA for protective studies, we conducted two separate sets of experiments to assess serum platelet concentrations. […] In the second study, the higher doses (HD) of SAHA (15 mg/kg and 25 mg/kg) were used. The DMSO concentration was 1.1 g/kg, equal to the DMSO concentration used for the 25 mg/kg concentration of SAHA. […] SAHA was dissolved in 100% DMSO for stock solutions of 25 mg/mL and diluted with saline immediately before IP injections. All compound solutions were filtered with syringe filters before injection. Body weights were measured before each injection. If a guinea pig lost ~5% of its body weight, an additional 3–4 mL of saline was administrated subcutaneously.
The procedures for surface preparations of guinea pig cochlear epithelia were followed as previously described (Sha and Schacht, [1999b]). After the last auditory brain stem response (ABR) measurement, guinea pigs from the second group of experiments were deeply anesthetized in a CO2 chamber and decapitated. Cochleae were immediately removed and perfused with 4% paraformaldehyde in PBS at pH 7.4 and fixed overnight at 4°C. Micro-dissected surface preparations of the organ of Corti were permeabilized for 30 min with 0.5% Triton X-100 in PBS at room temperature (22–24°C) and stained with rhodamine phalloidin (Invitrogen) at a 1:100 dilution for 60 min at room temperature (22–24°C). After rinsing in PBS, the specimens were mounted on a slide with Gel-Mount™ (BioMeda Corp.). OHC counts were conducted with microscopy as described above for mice.
ABRs were measured 3 days before and 3 weeks after drug treatments. Animals were anesthetized with IP injections of ketamine (100 mg/kg) and xylazine (10 mg/kg) for mice or ketamine (58.8 mg/kg), xylazine (2.4 mg/kg), and acepromazine (1.2 mg/kg) for guinea pigs. Body temperature was maintained near 37°C with a heating pad. ABRs were measured at 12 and 32 kHz for guinea pigs or 8, 16, and 32 kHz for mice in a sound-isolated and electrically shielded booth (Acoustic Systems, Austin, TX, USA). Sub-dermal electrodes were inserted at the vertex of the skull, under the left ear and under the right ear (ground). […] Thresholds (the lowest stimulus level with a reproducible response) were determined by reducing the intensity in 10-dB steps and then in 5-dB steps approaching the threshold until no organized response was detected. Thresholds were evaluated based on ABR wave I. Scores were given by an expert blinded to experimental conditions between the highest stimulus level without a response and the lowest stimulus level where an organized response was observed. […]

Take `O=C(CCCCCCC(=O)Nc1ccccc1)NO` [SAHA, vorinostat]: the “loss of OHCs” value in data set [1] (8 μM, 72 h) came out at 100%. The “concentration at which changes in orientation of stereociliary bundles of basal-turn OHCs begin” value in data set [1] (72 h incubation) was 4 µM. The “TD50 (median toxic dose, concentration leading to 50% OHC loss)” value in data set [1] (p3 murine explants, 72 h incubation) turned out to be 5.5 µM. In addition, the “effect on GM-induced auditory threshold shifts” value in the data set on pigmented guinea pigs (12 kHz) and in the data set with pigmented guinea pigs (32 kHz) was “did not attenuate” throughout. The “effect on GM-induced loss of OHCs” value in the data set on pigmented guinea pigs (SAHA IP with GM 120 mg base/kg daily for 2 weeks) was “did not attenuate”. Also, the “concentration at which protection from GM-induced OHC loss begins” value in data set [2] (72 h) amounted to 0.5 µM. The “concentration that completely prevents GM-induced OHC loss” value in data set [2] (72 h) was determined as 2 µM. Moreover, in data set [2] (72 h co-incubation, p3 murine explants), the “ED50 (median effective protective dose)” value stood at 600 nM.
